The values below are quoted from earlier work in patent US20110257198A1, “PIPERIDINE DERIVATIVES USEFUL AS OREXIN ANTAGONISTS” (priority 2008, published 2011).

Ends that are not written are not given here.

Data set [1] relates to rats. As to conditions: rats (White et al 2005).
Data set [2] has as its system rats. As to conditions: rats (Nair et al 2008).
Data set [3] deals with freely-feeding rats. As to conditions: central administration, 4 hour time period.
Data set [4] concerns rat. As to conditions: central administration at the onset of the normal sleep period (Hagan et al 1999).

For the compound `Cc1nc2ccc(NC(=O)Nc3ccnc4cccnc34)cc2o1` [SB334867], the “effect on hedonic eating” value in data set [1] is reported as “potently reduced hedonic eating”. The “effect on high-fat pellet self-administration” value in data set [2] is “attenuated high-fat pellet self-administration”.
Take “orexin-A: polypeptide ligand for the orexin-1 receptor; an agonist of the orexin receptors (QPLPDCCRQKTCSCRLYELLHGAGNHAAGILTL; ends and bridges not checked; cysteine pairing not given here; UniProt O43612 34-66, looked up)”: the “increase of food intake over control rats receiving vehicle” value in data set [3] is “approximately four-fold”. Besides, in data set [4], the effect on arousal result was “dose-related increase in arousal”.
